{"source": "ChEMBL document CHEMBL3868587", "about": "“Heptaketides from an Endolichenic Fungus Biatriospora sp. and Their Antifungal Activity” (2016)", "key": {"[1]": {"assay": "Antifungal activity against fluconazole-resistant Candida albicans clinical isolate 142 by CLSI broth microdilution method", "assay_type": "functional"}, "[2]": {"tested_on": "Candida albicans", "assay": "Inhibition of CDR1/CDR2 in Candida albicans clinical isolate 145 assessed as potentiation of fluconazole-induced antifungal activity by measuring fluconazole MIC80 up to 8 ug/ml after 24 hrs by XTT based broth microdilution assay (reference value: >128 ug/ml)"}, "[3]": {"assay": "Antifungal activity against fluconazole-resistant Candida albicans clinical isolate 144 by CLSI broth microdilution method", "assay_type": "functional"}, "[4]": {"tested_on": "Candida albicans", "assay": "Inhibition of CDR1/CDR2 in Candida albicans clinical isolate 24D assessed as potentiation of fluconazole-induced antifungal activity by measuring fluconazole MIC80 up to 8 ug/ml after 24 hrs by XTT based broth microdilution assay (reference value: >128 ug/ml)"}, "[5]": {"tested_on": "Candida albicans", "assay": "Inhibition of CDR1/CDR2 in Candida albicans clinical isolate 144 assessed as potentiation of fluconazole-induced antifungal activity by measuring fluconazole MIC80 up to 8 ug/ml after 24 hrs by XTT based broth microdilution assay (reference value: >128 ug/ml)"}, "[6]": {"assay": "Antifungal activity against fluconazole-resistant Candida albicans clinical isolate 145 by CLSI broth microdilution method", "assay_type": "functional"}, "[7]": {"assay": "Antifungal activity against fluconazole-resistant Candida albicans clinical isolate 24D by CLSI broth microdilution method", "assay_type": "functional"}, "[8]": {"tested_on": "Candida albicans", "assay": "Antifungal activity against Candida albicans SC5314 by CLSI broth microdilution method", "assay_type": "functional"}, "[9]": {"assay": "Antifungal activity against fluconazole-resistant Candida albicans clinical isolate 18I by CLSI broth microdilution method", "assay_type": "functional"}, "[10]": {"tested_on": "Candida albicans", "assay": "Inhibition of CDR1/CDR2 in Candida albicans clinical isolate 147 assessed as potentiation of fluconazole-induced antifungal activity by measuring fluconazole MIC80 up to 8 ug/ml after 24 hrs by XTT based broth microdilution assay (reference value: >128 ug/ml)"}, "[11]": {"assay": "Antifungal activity against fluconazole-resistant Candida albicans clinical isolate 147 by CLSI broth microdilution method", "assay_type": "functional"}, "[12]": {"tested_on": "Candida albicans", "assay": "Inhibition of CDR1/CDR2 in Candida albicans clinical isolate 18I assessed as potentiation of fluconazole-induced antifungal activity by measuring fluconazole MIC80 up to 8 ug/ml after 24 hrs by XTT based broth microdilution assay (reference value: >128 ug/ml)"}, "[13]": {"tested_on": "Candida albicans", "assay": "Inhibition of CDR1/CDR2 in Candida albicans clinical isolate 142 assessed as potentiation of fluconazole-induced antifungal activity by measuring fluconazole MIC80 up to 8 ug/ml after 24 hrs by XTT based broth microdilution assay (reference value: >128 ug/ml)"}, "[14]": {"assay": "Upregulation of CDR2 mRNA expression in fluconazole-resistant Candida albicans clinical isolate 24D at 2 ug/ml measured after 12 hrs by qPCR method relative to control", "assay_type": "functional"}, "[15]": {"assay": "Reduction in CDR1 mRNA expression in fluconazole-resistant Candida albicans clinical isolate 24D at 1 ug/ml measured after 12 hrs by qPCR method relative to control", "assay_type": "functional"}, "[16]": {"tested_on": "Candida albicans", "assay": "Antifungal activity against Candida albicans clinical isolate 145 after 24 hrs in presence of fluconazole by XTT based broth microdilution assay", "assay_type": "functional", "settings": "isolate 145, 24 h"}, "[17]": {"tested_on": "Candida albicans", "assay": "Inhibition of CDR1/CDR2 in Candida albicans clinical isolate 145 assessed as potentiation of fluconazole-induced antifungal activity up to 8 ug/ml after 24 hrs by broth microdilution checkerboard assay"}, "[18]": {"assay": "Antifungal activity against Candida albicans clinical isolate 18I after 24 hrs in presence of fluconazole by XTT based broth microdilution assay", "assay_type": "functional"}, "[19]": {"tested_on": "Candida albicans", "assay": "Inhibition of CDR1/CDR2 in Candida albicans clinical isolate 142 assessed as potentiation of fluconazole-induced antifungal activity up to 8 ug/ml after 24 hrs by broth microdilution checkerboard assay"}, "[20]": {"tested_on": "Candida albicans", "assay": "Inhibition of CDR1/CDR2 in Candida albicans clinical isolate 142 assessed as potentiation of fluconazole-induced antifungal activity measured as reduction in fluconazole MIC80 up to 8 ug/ml after 24 hrs by XTT based broth microdilution assay relative to fluconazole"}, "[21]": {"tested_on": "Candida albicans", "assay": "Inhibition of Candida albicans clinical isolate 24D CDR1/CDR2 assessed as inhibtion of glucose-induced rhodamine-123 efflux at 1 ug/ml measured after 30 mins by flow cytometry"}, "[22]": {"tested_on": "Candida albicans", "assay": "Inhibition of CDR1/CDR2 in Candida albicans clinical isolate 147 assessed as potentiation of fluconazole-induced antifungal activity up to 8 ug/ml after 24 hrs by broth microdilution checkerboard assay"}, "[23]": {"tested_on": "Candida albicans", "assay": "Inhibition of CDR1/CDR2 in Candida albicans clinical isolate 144 assessed as potentiation of fluconazole-induced antifungal activity up to 8 ug/ml after 24 hrs by broth microdilution checkerboard assay"}, "[24]": {"assay": "Antifungal activity against Candida albicans clinical isolate 147 after 24 hrs in presence of fluconazole by XTT based broth microdilution assay", "assay_type": "functional"}, "[25]": {"assay": "Antifungal activity against Candida albicans clinical isolate 24D after 24 hrs in presence of fluconazole by XTT based broth microdilution assay", "assay_type": "functional"}, "[26]": {"tested_on": "Candida albicans", "assay": "Inhibition of CDR1/CDR2 in Candida albicans clinical isolate 18I assessed as potentiation of fluconazole-induced antifungal activity up to 8 ug/ml after 24 hrs by broth microdilution checkerboard assay"}, "[27]": {"tested_on": "Candida albicans", "assay": "Inhibition of CDR1/CDR2 in Candida albicans clinical isolate 24D assessed as potentiation of fluconazole-induced antifungal activity up to 8 ug/ml after 24 hrs by broth microdilution checkerboard assay"}, "[28]": {"tested_on": "Candida albicans", "assay": "Inhibition of Candida albicans clinical isolate 24D CDR1/CDR2 assessed as inhibtion of glucose-induced rhodamine-123 efflux at 1 ug/ml measured after 30 mins by confocal microscopic analysis"}, "[29]": {"assay": "Upregulation of CDR1 mRNA expression in fluconazole-resistant Candida albicans clinical isolate 24D at 2 ug/ml measured after 12 hrs by qPCR method relative to control", "assay_type": "functional"}, "[30]": {"tested_on": "Candida albicans", "assay": "Antifungal activity against Candida albicans clinical isolate 144 after 24 hrs in presence of fluconazole by XTT based broth microdilution assay", "assay_type": "functional", "settings": "isolate 144, 24 h"}, "[31]": {"tested_on": "Candida albicans", "assay": "Antifungal activity against Candida albicans clinical isolate 142 after 24 hrs in presence of fluconazole by XTT based broth microdilution assay", "assay_type": "functional", "settings": "isolate 142, 24 h"}, "[32]": {"assay": "Reduction in CDR2 mRNA expression in fluconazole-resistant Candida albicans clinical isolate 24D at 1 ug/ml measured after 12 hrs by qPCR method relative to control", "assay_type": "functional"}}, "note": "Calls of active or inactive are those of the source. The rule behind the calls is not given here.", "data": [{"smiles": "OC(Cn1cncn1)(Cn1cncn1)c1ccc(F)cc1F", "note": "[FLUCONAZOLE]", "values": [{"measurement": "MIC80", "setting": "[1]", "value": "> 128", "unit": "µg/mL"}, {"measurement": "MIC80", "setting": "[2]", "value": 4, "unit": "µg/mL"}, {"measurement": "MIC80", "setting": "[3]", "value": "> 128", "unit": "µg/mL"}, {"measurement": "MIC80", "setting": "[4]", "value": 2, "unit": "µg/mL"}, {"measurement": "MIC80", "setting": "[5]", "value": 2, "unit": "µg/mL"}, {"measurement": "MIC80", "setting": "[6]", "value": "> 128", "unit": "µg/mL"}, {"measurement": "MIC80", "setting": "[7]", "value": "> 128", "unit": "µg/mL"}, {"measurement": "MIC80", "setting": "[8]", "value": 2, "unit": "µg/mL"}, {"measurement": "MIC80", "setting": "[9]", "value": "> 128", "unit": "µg/mL"}, {"measurement": "MIC80", "setting": "[10]", "value": 2, "unit": "µg/mL"}, {"measurement": "MIC80", "setting": "[11]", "value": "> 128", "unit": "µg/mL"}, {"measurement": "MIC80", "setting": "[12]", "value": 1, "unit": "µg/mL"}, {"measurement": "MIC80", "setting": "[13]", "value": 0.5, "unit": "µg/mL"}]}, {"smiles": "COc1cc(O)c2c(c1)C(=O)C(CC(C)=O)=C(C)C2=O", "values": [{"measurement": "MIC80", "setting": "[8]", "value": 64, "unit": "µg/mL"}]}, {"smiles": "CC1=CC2=C(CO1)C(=O)c1c(O)cc(O)cc1C2=O", "values": [{"measurement": "MIC80", "setting": "[8]", "value": 32, "unit": "µg/mL"}]}, {"smiles": "COc1cc(O)c2c(c1)-c1oc(C)cc1C(=O)C2=O", "values": [{"measurement": "fold change (FC)", "setting": "[14]", "value": 3.6}, {"measurement": "fold change (FC)", "setting": "[15]", "value": 0.4}, {"measurement": "MIC80", "setting": "[16]", "value": 0.125, "unit": "µg/mL"}, {"measurement": "MIC80", "setting": "[1]", "value": 16, "unit": "µg/mL"}, {"measurement": "fractional inhibitory concentration index (FICI)", "setting": "[17]", "value": 0.04}, {"measurement": "MIC80", "setting": "[3]", "value": 16, "unit": "µg/mL"}, {"measurement": "MIC80", "setting": "[18]", "value": 0.25, "unit": "µg/mL"}, {"measurement": "fractional inhibitory concentration index (FICI)", "setting": "[19]", "value": 0.01}, {"measurement": "fold change (FC)", "setting": "[20]", "value": "> 256"}, {"measurement": "inhibition", "setting": "[21]", "value": "Active"}, {"measurement": "fractional inhibitory concentration index (FICI)", "setting": "[22]", "value": 0.02}, {"measurement": "fractional inhibitory concentration index (FICI)", "setting": "[23]", "value": 0.02}, {"measurement": "MIC80", "setting": "[24]", "value": 0.125, "unit": "µg/mL"}, {"measurement": "MIC80", "setting": "[25]", "value": 0.25, "unit": "µg/mL"}, {"measurement": "MIC80", "setting": "[6]", "value": 16, "unit": "µg/mL"}, {"measurement": "fractional inhibitory concentration index (FICI)", "setting": "[26]", "value": 0.02}, {"measurement": "MIC80", "setting": "[7]", "value": 16, "unit": "µg/mL"}, {"measurement": "fractional inhibitory concentration index (FICI)", "setting": "[27]", "value": 0.03}, {"measurement": "MIC80", "setting": "[8]", "value": 16, "unit": "µg/mL"}, {"measurement": "MIC80", "setting": "[9]", "value": 16, "unit": "µg/mL"}, {"measurement": "MIC80", "setting": "[11]", "value": 16, "unit": "µg/mL"}, {"measurement": "inhibition", "setting": "[28]", "value": "Active"}, {"measurement": "fold change (FC)", "setting": "[29]", "value": 2}, {"measurement": "MIC80", "setting": "[30]", "value": 0.125, "unit": "µg/mL"}, {"measurement": "MIC80", "setting": "[31]", "value": 0.125, "unit": "µg/mL"}, {"measurement": "fold change (FC)", "setting": "[32]", "value": 0.5}]}, {"smiles": "CN(C/C=C/C#CC(C)(C)C)Cc1cccc2ccccc12", "note": "[TERBINAFINE]", "values": [{"measurement": "MIC80", "setting": "[8]", "value": 16, "unit": "µg/mL"}]}, {"smiles": "COc1cc(O)c2c(c1)C(=O)C1=C(C2=O)[C@H](OC)O[C@@H](C)C1", "values": [{"measurement": "MIC80", "setting": "[8]", "value": 64, "unit": "µg/mL"}]}]}
